Data on one compound can be found in US10617735B2, “Methods and compositions for preserving retinal ganglion cells” (Massachusetts Eye and Ear Infirmary, priority 2010, dated 2020).

The structures appear in SMILES notation. Where a SMILES comes first, the peptide text is derived from it. The star is where a group is joined. Cbz = O=C(OCc1ccccc1)*; CH2F = FC*

The assay concerns caspase-8, caspase-9 and caspase-3. Briefly: Caspase-8, caspase-9 and caspase-3 activities in the retina after ON injury (commercial kit). In kind it is in vivo, mouse. Particulars: one day after ON injury, intravitreal Z-VAD. From the text: Two mouse models of RGC death were utilized: optic nerve (ON) injury and N-methyl-D-aspartate (NMDA) retinal excitotoxicity. ON injury leads to RGC death as a result of primary damage to the axons, with its ensuing disruption of retrograde axonal transport (Libby et al., (2005) PLOS GENET 1:17-26) and is used as an RGC death model. In the ON injury model, mice were anesthetized and subjected to severe crush injury at 1-2 mm distance from the eyeball for 15 seconds using cross-action forceps taking special care not to interfere with the blood supply (Levkovitch-Verbin, (2004) EYE 18:1066-1074). Injured mice were randomly divided into 4 groups for treatment: vehicle group (0.5% DMSO and 0.8% cyclodextrin in PBS, n=6), ZVAD group (300 n=6), Nec-1 group (4 mM, n=6), and ZVAD plus Nec-1 group (n=6). Soon after injury, each group received an intravitreal injection (2 μl) with the respective compounds. […]
In human glaucoma, RGC death has been attributed mainly to apoptosis (Kerrigan et al., (1997), Tatton et al., (2001)). […] The activities of caspase-8, caspase-9 and caspase-3 were measured using a commercially available kit according to the manufacturer's instructions (APT171/131/139; Millipore, Billerica, Mass.).

As to `COC(=O)CC(NC(=O)C(C)NC(=O)C(NC(=O)OCc1ccccc1)C(C)C)C(=O)CF` (stereo not drawn) [Z-VAD, Benzyloxycarbonyl-Val-Ala-Asp(OMe)-fluoromethylketone] (Cbz-Val-Ala-Asp(OMe)-CH2F; configuration not given here), the “decrease of the activities of the caspases” value amounted to 70%.
